Results reported in US6812034B2, “Fetuin-MGP-mineral complex in serum assayed to determine calcification risk” (The Regents of the University of California, priority 2000, dated 2004).
“Also recorded” adds a separate entry of the source.

Columns and labels:
Assay type in all cases: in vivo, rat
[1] = serum levels of calcium, phosphate, MGP and BGP after subcutaneous bisphosphonate
Method: Rats were fed rodent diet 5001 (Purina Mills Inc., St. […] Etidronate was dissolved with 0.15 M NaCl, titrated to pH 7.4 with dilute NaOH, and administered subcutaneously to forty-day-old male rats. Control animals received injections of 0.15 M NaCl only. […] At the times indicated in FIG. 1, each rat was anesthetized with metofane and a 400 μl sample of blood was withdrawn from the jugular vein. Blood samples were allowed to clot for 15 min at room temperature and serum was obtained after centrifugation in a clinical centrifuge and then frozen rapidly on dry ice and stored at -70° C. until later analysis. The same procedure was followed for the second time course experiment (FIG. 10), with the difference that the etidronate dose was increased to 32 mg per 100 g body weight. […] Two hours later, all rats were injected with etidronate at a dose of 8 mg/100 g (t=0), and 400 μl of blood were removed from each animal at the indicated times for biochemical analyses. […] In neither control group could we detect a significant change in serum levels of calcium, phosphate, or MGP at any time point. […] Rice et al. (1994) J. Bone Min. Res. 9: 567-576). Calcium levels in serum and other samples were determined colorimetrically using cresolphthalein complexone (Sigma) and phosphate levels in serum, effluent fractions, and other samples were determined calorimetrically as described (Chen et al. (1956) Anal. Chem. 28(11): 1756-1758). For determination of ionic calcium, freshly obtained blood samples were immediately placed into a 2.5 ml gold top vacutainer tube to avoid out gassing of CO2 and the associated shift in pH. […] Electrophoresis was carried out using 4 to 20% polyacrylamide gels (Novex, Inc., San Diego, Calif.) run in Tris-glycine buffer containing SDS. Protein sequencing was carried out on bands transferred to PVDF membranes using a Procise 494 Sequencer (ABI division, PE Biosystems, Foster City, Calif.).

[2] = weight, tibia length and serum calcium and phosphate in warfarin-treated rats; conditions: for mg Ca dl serum / mg P dl serum: 4 weeks
Description: This procedure induces artery calcification within 2 weeks without the presence of hypercalcemia.

[3] = system: warfarin-induced artery calcification; assay: artery calcification in rats treated with warfarin for 2 or 4 weeks; conditions: both carotid arteries
Method: (§1) Tissues were subsequently washed extensively with buffer and extracted with 1 ml of 10% formic acid for 24 h at room temperature, as described. Calcium levels in serum were determined colorimetrically using cresolphthalein complexone (Sigma) and phosphate levels in serum and in acid tissue extracts were determined calorimetrically as described (Zhu et al. (1994) Cardiology, 85: 370-377). Tissue sectioning and staining were carried out by Biomedical Testing Services, Inc., (San Diego, Calif.). The effect of bisphosphonates on artery calcification was also examined in rats treated with warfarin alone using procedures which have been described elsewhere (Price et al. (1998) Arterioscler. Thromb. Vasc. Biol. 18: 1400-1407).

[4] = system: aorta calcification in rats treated with vitamin D plus warfarin; assay: von Kossa staining for calcification in rats treated with vitamin D plus warfarin; conditions: for Histology Score Observer #1 x ± S.D. / Histology Score Observer #2 x ± S.D.: 84 h; for dose that completely eliminated von Kossa staining for mineral in the abdominal aorta: 84 h after first vitamin D
Method: (§2) For measurement of mineral accumulation in arteries, each tissue was removed within 30 minutes of death and immediately frozen. Tissues were subsequently washed extensively with buffer and extracted with 1 ml of 10% formic acid for 24 h at room temperature, as described. Calcium levels in serum were determined colorimetrically using cresolphthalein complexone (Sigma) and phosphate levels in serum and in acid tissue extracts were determined calorimetrically as described (Zhu et al. (1994) Cardiology, 85: 370-377). Tissue sectioning and staining were carried out by Biomedical Testing Services, Inc., (San Diego, Calif.).
Male Sprague Dawley rats were fed ad libitum with rodent diet 5001 (Purina Mills Inc., St. Louis, Mo.), a diet that is 0.67% phosphorus and 0.95% calcium by weight. This diet contains 500 μg per kg of phylloquinone and has no added menadione. In all experiments, animals were killed by exsanguination while under metofane anesthetic, and selected tissues were removed immediately and fixed in 10% buffered formalin or frozen at −20° C. for later studies. All animal experiments were approved by the UCSD animal subjects committee.

[5] = serum levels of calcium and phosphate in rats treated with vitamin D plus warfarin; conditions: 84 h; for reduction of serum phosphate: two highest doses
Method: as §2, with “Calif.). […]” for “Calif.).”

[6] = system: vitamin D-induced artery calcification; assay: mineral phosphate accumulation in acid demineralization extracts of thoracic aorta and carotid arteries, vitamin D plus warfarin; conditions: for Artery Calcification Relative potency: relative to etidronate = 1
Method: as §1, with “first” for “also”, “in which artery calcification was induced by treatment” for “treated”, “plus high doses of vitamin D. […] All animals were killed by exsanguination at 96 h. […] All animals were killed by exsanguination at 96 h after the first vitamin D dose. […] All animals were killed by exsanguination 96 h after the first vitamin D injection.” for “alone using procedures which have been described elsewhere (Price et al. (1998) Arterioscler. Thromb. Vasc. Biol. 18: 1400-1407).”

[7] = Sephacryl S300 gel filtration of serum; conditions: serum 6 h after etidronate, concurrent warfarin
Method: The serum mineral complex was characterized by gel filtration using 25 ml columns of Sephacryl S-300 HR which were prepared in disposable plastic pipets and were equilibrated with 20 mM HEPES pH 7.4, 0.15 M NaCl and 10 mM CaCl2 at room temperature. Serum was obtained from rats 6 h after administration of etidronate at a dose of 8 mg/100 g, and 1 ml aliquots were immediately applied to the Sephacryl column. Fractions of 0.5 ml were then collected and analyzed to determine the level of phosphate and MGP (see below).

[8] = 0.025 mg P/kg/day plus warfarin
[9] = 0.0004 mg P/kg/day sc, score 0-5
[10] = 0.002 mg P/kg/day sc, score 0-5
[11] = 0.010 mg P/kg/day sc, score 0-5
[12] = 0.050 mg P/kg/day sc, score 0-5
[13] = 0.00036 mg P/kg/day sc, score 0-5 (5 most calcified)
[14] = 0.0018 mg P/kg/day sc, score 0-5
[15] = 0.009 mg P/kg/day sc, score 0-5
[16] = 0.045 mg P/kg/day sc, score 0-5
[17] = 15.4 mg warfarin per 100 g 2 h before 8 mg/100 g etidronate

NCCCC(O)(P(=O)(O)O)P(=O)(O)O [Alendronate, (4-amino-1-hydroxybutylidene)bis-phosphonate]
effect on serum calcium, phosphate and MGP levels ([1]; 4 mg/100 g dose, 1, 2, 6, 12 and 24 h, data not shown): no effect
mg Ca dl serum [2, 8]: 10.0 ± 0.1 mg/dL
mg P dl serum [2, 8]: 10.0 ± 0.1 mg/dL
mg Ca dl serum ([2]; 0.25 mg P/kg/day plus warfarin): 10.8 ± 0.1 mg/dL
mg P dl serum ([2]; 0.25 mg P/kg/day plus warfarin): 10.9 ± 0.7 mg/dL
effect on bone growth or weight gain ([2]; 0.025 and 0.25 mg P/kg/day, warfarin 4 weeks): without affecting bone growth or weight gain
nmol PO4 Carotid [3, 8]: 374.0 ± 217.4 nmol
nmol PO4 Carotid ([3]; 0.25 mg P/kg/day plus warfarin): 63.7 ± 43.1 nmol
Histology Score Observer #1 x ± S.D. [4, 9]: 2.8 ± 1.0
Histology Score Observer #2 x ± S.D. [4, 9]: 3.3 ± 1.3
Histology Score Observer #1 x ± S.D. [4, 10]: 2.5 ± 0.6
Histology Score Observer #2 x ± S.D. [4, 10]: 2.0 ± 0.8
Histology Score Observer #1 x ± S.D. [4, 11]: 2.0 ± 1.8
Histology Score Observer #2 x ± S.D. [4, 11]: 2.5 ± 1.3
Histology Score Observer #1 x ± S.D. [4, 12]: 0.8 ± 0.5
Histology Score Observer #2 x ± S.D. [4, 12]: 0.4 ± 0.5
Histology Score Observer #1 x ± S.D. ([4]; 0.25 mg P/kg/day sc, score 0-5): 0.0 ± 0.0
Histology Score Observer #2 x ± S.D. ([4]; 0.25 mg P/kg/day sc, score 0-5): 0.0 ± 0.0
dose that completely eliminated von Kossa staining for mineral in the abdominal aorta [4]: 0.25 mg P/kg/day
Serum Ca ([5]; 0.0004 mg P/kg/day): 13.3 ± 0.7 mg/dL
Serum P ([5]; 0.0004 mg P/kg/day): 10.8 ± 1.2 mg/dL
Serum P ([5]; 0.002 mg P/kg/day): 10.2 ± 0.6 mg/dL
Serum Ca ([5]; 0.01 mg P/kg/day): 15.9 ± 0.4 mg/dL
Serum P ([5]; 0.01 mg P/kg/day): 10.0 ± 0.9 mg/dL
Serum P ([5]; 0.05 mg P/kg/day): 9.9 ± 0.5 mg/dL
Serum P ([5]; 0.25 mg P/kg/day): 9.5 ± 0.7 mg/dL
reduction of serum phosphate [5]: about 16%

CCCCCN(C)CCC(O)(P(=O)(O)O)P(=O)(O)O [Ibandronate, (1-hydroxy-3-(methylpentylamino)propylidene)bis-phosphonate]
dose required to reduce the extent of mineralization by half in the thoracic aorta ([6]; 84 h, FIG. 3): 0.0002 mg P/kg/day
dose required to reduce the extent of mineralization by half in the carotid artery ([6]; 84 h, FIG. 4): 0.00018 mg P/kg/day
Artery Calcification Dose for 50% inhibition ([6]; daily subcutaneous dose, vitamin D-induced artery calcification, male rats initially 200 g): 0.00019 mg P/kg/day
subcutaneous dose required for 50% inhibition of artery calcification ([6]; rat, FIGS. 3 and 4): 0.2 μg P/kg/day
Artery Calcification Relative potency [6]: 10500
Artery Calcification Relative potency ([6]; listed as ibandronate): 10,500
Histology Score Observer #1 x ± S.D. [4, 13]: 1.0 ± 0.8
Histology Score Observer #2 x ± S.D. [4, 13]: 1.0 ± 0.8
Histology Score Observer #1 x ± S.D. [4, 14]: 0.0 ± 0.0
Histology Score Observer #2 x ± S.D. [4, 14]: 0.0 ± 0.0
Histology Score Observer #1 x ± S.D. [4, 15]: 0.0 ± 0.0
Histology Score Observer #2 x ± S.D. [4, 15]: 0.0 ± 0.0
Histology Score Observer #1 x ± S.D. [4, 16]: 0.0 ± 0.0
Histology Score Observer #2 x ± S.D. [4, 16]: 0.0 ± 0.0
dose that completely eliminated von Kossa staining for mineral in the abdominal aorta [4]: ≥ 0.0018 mg P/kg/day
Serum Ca ([5]; 0.00036 mg P/kg/day): 13.8 ± 0.6 mg/dL
Serum P ([5]; 0.00036 mg P/kg/day): 9.9 ± 0.5 mg/dL
Serum Ca ([5]; 0.0018 mg P/kg/day): 15.5 ± 0.9 mg/dL
Serum P ([5]; 0.0018 mg P/kg/day): 10.3 ± 0.6 mg/dL
Serum Ca ([5]; 0.009 mg P/kg/day): 14.9 ± 0.6 mg/dL
Serum P ([5]; 0.009 mg P/kg/day): 10.4 ± 0.7 mg/dL
Serum Ca ([5]; 0.045 mg P/kg/day): 15.4 ± 0.3 mg/dL
Serum P ([5]; 0.045 mg P/kg/day): 9.9 ± 0.4 mg/dL
reduction of serum phosphate [5]: ~11%

CC(=O)CC(c1ccccc1)c1c(O)c2ccccc2oc1=O (centres unmarked) [warfarin]
effect on the increase in serum MGP following etidronate [1, 17]: prevents the increase in serum MGP; also recorded: blocked the increase in serum MGP
effect on the time course of the elevation in serum calcium and phosphate following etidronate [1, 17]: did not affect
effect on serum levels of MGP ([1]; animals which did not receive etidronate): no effect
MGP levels in the high molecular weight position, of the level in vitamin K-replete, etidronate treated rats [7]: 5%
phosphate levels in the high molecular weight, excluded volume position vs vitamin K-replete, etidronate treated rats [7]: comparable
